Measurements published in US11815508B2, “Dynamic BH3 profiling” (Dana-Farber Cancer Institute, Inc., priority 2012, dated 2023).

Legend:
Format in all cases: cell-based, human
SuDHL4 cell line = assay: miBH3 profile of the SuDHL4 cell line; conditions: response to BH3 peptides
Description: FIGS. 14A-14B are a series of bar graphs showing the correlation of miBH3 profiles with known profiles.
Dynamic BH3 profiling can be accomplished at the single cell level by immobilizing cells on a solid surface. Optionally the solid surface is polyamine or poly-lysine coated. Immobilized cells are permeabilized as described above. The cells are then contacted with BH3 peptides and/or test agents. After the cells have been treated for a predetermined period of time such as 45-90 minutes, the cells are fixed and permeabilized by methods known in the art. For example the cells are fixed with formaldehyde and further permeabilized with methanol or triton x-100. Outer membrane permeabilization is determined intracellular staining for molecules from the mitochondrial inter-membrane space and a mitrochondrial marker. Examples of molecules that can be measured include cytochrome c and SMAC/Diablo, Omi, adenylate kinase-2 or apoptotic-inducing factor (AIF). Mitochondrial markers include MnSOD. Stained cells can be counterstained with nuclear stains such as DAPI. Optionally other intracellular and extracellular markers can be measured. Analysis of the cells can be manually accomplished using a microscope or automated for example by using software such as Cellprofiler to locate nuclei.
MicroBH3 (miBH3) is a BH3 profiling method where the measurement of the mitochondrial effect of BH3 peptides have on individual cells by microscopy. To accomplish this, cells are immobilized on polyamine or poly-lysine coated surfaces and treated with low concentrations of digitonin in a mitochondrial buffer to permeabilize the plasma membrane and grant access to the mitochondria without cell disruption. […] Fixed cells by this method can be readily stopped at the fixation step and can be analyzed weeks after acquisition as well as readily re-analyzed if needed.

PC9 = assay: Dynamic BH3 profiling, NSCLC cell line PC9; conditions: gefitinib 1 μM, WZ4002 100 nM, 16 hours; BH3 peptide Bim at low concentrations
Description: (§1) In various methods, sensitivity of a cell to an agent is determined. The methods include contacting a test cell with a test agent. Cell sensitivity to the test agent is determined by contacting the test cell or test cellular component (e.g., mitochondria) exposed to the test agent with standardized concentration of a panel of BH3 domain peptide from the pro-apoptotic BCL-2 family. […] The cell or cellular component is a cancer cell or a cell that is suspected of being cancerous. The cell is permeabilized to permit the BH3 peptides access to the mitochondria. Cells are permeabilized by methods known in the art. For example, the cell are permeabilized by contacting the cell with digitonin, or other art-recognized detergents and cell-permeabilization agents. After the cells are permeabilized the cells are treated with the BH3 peptides or test agents. After the cell is treated, mitochondrial outer membrane permeabilization is measured. Outer membrane permeabilization is measured by a number of methods. For example outer membrane permeabilization is measured by loss of mitochondrial membrane potential. Loss of mitochondrial membrane potential is measured for example by treating the cells with a potentiometric or radiometric dye. Three different cell lines were used: PC9, PC9 gefitinib resistant (PC9GR, including the mutation T790M) and PC9GR resistant to WZ4002 (PC9WZR). […]

PC9GR = assay: Dynamic BH3 profiling, PC9 gefitinib resistant; conditions: gefitinib 1 μM, WZ4002 100 nM, 16 hours; BH3 peptide Bim at low concentrations
Description: as §1

PC9WZR = assay: Dynamic BH3 profiling, PC9GR resistant to WZ4002; conditions: gefitinib 1 μM, WZ4002 100 nM, 16 hours; BH3 peptide Bim at low concentrations
Description: as §1

K562 [1] = assay: Dynamic BH3 profiling, K562 cells; conditions: for change in depolarization caused by the BIM BH3 peptide following drug treatment: drug exposure 16 hours
Description: (§2) The change in depolarization caused by the BIM BH3 peptide following drug treatment is shown. […] Imatinib is a positive control.
(§3) In various methods, sensitivity of a cell to an agent is determined. The methods include contacting a test cell with a test agent. Cell sensitivity to the test agent is determined by contacting the test cell or test cellular component (e.g., mitochondria) exposed to the test agent with standardized concentration of a panel of BH3 domain peptide from the pro-apoptotic BCL-2 family.
(§4) The cell or cellular component is a cancer cell or a cell that is suspected of being cancerous. The cell is permeabilized to permit the BH3 peptides access to the mitochondria. Cells are permeabilized by methods known in the art. For example, the cell are permeabilized by contacting the cell with digitonin, or other art-recognized detergents and cell-permeabilization agents.
(§5) After the cells are permeabilized the cells are treated with the BH3 peptides or test agents. After the cell is treated, mitochondrial outer membrane permeabilization is measured. Outer membrane permeabilization is measured by a number of methods. For example outer membrane permeabilization is measured by loss of mitochondrial membrane potential. Loss of mitochondrial membrane potential is measured for example by treating the cells with a potentiometric or radiometric dye.

K562 [2] = assay: Cell death by Annexin V/PI, K562 cells; conditions: drug exposure 72 hours
Ku812 [3] = assay: Dynamic BH3 profiling, Ku812 cells
Description: as §2, §3, §4, §5

Ku812 [4] = assay: Cell death, Ku812 cells

LWAAQRYGRELRRMSDEFEGSFKGL [BAD]
release of cytochrome c and loss of correlation between cytochrome c and MnSOD channels (SuDHL4 cell line): Release of cytochrome c and loss of correlation

COc1cc2ncnc(Nc3ccc(F)c(Cl)c3)c2cc1OCCCN1CCOCC1 [gefitinib]
sensitivity (change in priming) by dynamic BH3 profiling (PC9): sensitive | sensitivity (change in priming) by dynamic BH3 profiling (PC9GR): insensitive | sensitivity (change in priming) by dynamic BH3 profiling (PC9WZR): insensitive

COc1cc(N2CCC(N3CCN(C)CC3)CC2)ccc1Nc1ncc(Cl)c(Nc2ccccc2S(=O)(=O)C(C)C)n1 [TAE-684]
change in depolarization caused by the BIM BH3 peptide following drug treatment (K562 [1]): significant changes | cell death response (Annexin V/PI) (K562 [2]): unexpected killing

Cc1sc2c(c1C)C(c1ccc(Cl)cc1)=N[C@@H](CC(=O)OC(C)(C)C)c1nnc(C)n1-2 [JQ1]
priming by dynamic BH3 profiling (Ku812 [3]; epigenetic modifying agents, imatinib positive control): increases priming | cell death (Ku812 [4]): induce cell death

HQAEVQIARKLQLIADQFHR [BMF]
release of cytochrome c and loss of correlation between cytochrome c and MnSOD channels (SuDHL4 cell line): Release of cytochrome c and loss of correlation

C=CC(=O)Nc1cccc(Oc2nc(Nc3ccc(N4CCN(C)CC4)cc3OC)ncc2Cl)c1 [WZ4002]
sensitivity (change in priming) by dynamic BH3 profiling (PC9): sensitive | sensitivity (change in priming) by dynamic BH3 profiling (PC9GR): sensitive | sensitivity (change in priming) by dynamic BH3 profiling (PC9WZR): insensitive

Cc1ccc(NC(=O)c2ccc(CN3CCN(C)CC3)cc2)cc1Nc1nccc(-c2cccnc2)n1 [imatinib]
change in depolarization caused by the BIM BH3 peptide following drug treatment (K562 [1]): significant changes | priming, several BH3 peptides (K562 [1]; imatinib 1 μM, 16 h and 8 h): increase in priming | priming, several BH3 peptides (Ku812 [3]; imatinib 1 μM, 16 h and 8 h): increase in priming | cell death (Ku812 [4]): induce cell death

EQWAREIGAQLRRMADDLNA [PUMA]
release of cytochrome c and loss of correlation between cytochrome c and MnSOD channels (SuDHL4 cell line): Release of cytochrome c and loss of correlation

Cn1c(=O)n(-c2ccc(C(C)(C)C#N)cc2)c2c3cc(-c4cnc5ccccc5c4)ccc3ncc21 [BEZ235]
change in depolarization caused by the BIM BH3 peptide following drug treatment (K562 [1]): significant changes | cell death response (Annexin V/PI) (K562 [2]): unexpected killing
